Values of other authors in patent publication US20160213782A1, “POLYURETHANES AS ORAL DRUG DELIVERY PLATFORM” (Universiteit Gent, priority 2013, published 2016).
Counter-ions that a name gives are not always drawn.

Conditions: for drug solubility: as given in legend of FIG. 1; for aqueous solubility in 100 ml at 25° C.: in 100 ml water

SMILES	drug solubility	aqueous solubility in 100 ml at 25° C.
COCCc1ccc(OCC(O)CNC(C)C)cc1 (centres unmarked) [MPT, Metoprolol tartrate]	> 1000 mg/mL	–
Cn1c(=O)c2[nH]cnc2n(C)c1=O [TH, Theophylline]	10 mg/mL	0.7 g
Cn1c(=O)c2c(ncn2CC(O)CO)n(C)c1=O (centres unmarked) [Dyph, 7-(2,3-dihydroxypropyl)-theophylline]	–	33 g
CC(=O)Nc1ccc(O)cc1 [acetaminophen]	–	1.4 g
